Experimental data taken from patent US20220324770A1, “NITRIFICATION INHIBITORS” (The University of Melbourne, priority 2019, published 2022).

Experiments:
[1] = system: Horsham soil; experiment: Soil microcosm incubation (nitrification of applied ammonium), Horsham soil
Protocol: (§1) The soil used in this study was collected from four different locations in Victoria, Australia: (i) a wheat cropping soil from Horsham (36° 45′S, 142° 07′ E), (ii) a rotational cropping soil from Dahlen (36° 37′S, 142° 09′ E), (iii) a vegetable growing soil from Clyde (38° 08′S, 145° 20′ E), and (iv) a pasture soil from Terang (38° 15′S, 142° 52′E). In addition, a sugarcane cropping soil from South Johnstone in northern Queensland (17° 34′S, 145° 57′ E) was also studied. The water content of the soil was calculated before commencing each experiment, from samples that were oven-dried to constant weight. The soil's water-filled pore space (WFPS) was in the range 52%-61%, which is within the recommended 50-70% range for microbial activity due to oxygen and nutrient availability (Fichtner, T., et al., Applied Sciences, 2019, 9, 496).
(§2) Soil microcosm incubations were carried out in 250 ml polypropylene specimen containers (Sarstedt, Germany), containing 18.24 g oven dry-weight equivalent of soil. Microcosms were re-wetted and pre-incubated at the test temperature for seven days to revive soil microbial activity. Following pre-incubation, the remaining volume to reach the desired water-filled pore spaces (WFPS %) was applied as one of the following treatment solutions; (NH4)2SO4(Control), (NH4)2SO4+DMPP, or (NH4)2SO4+one of Compounds 1-23. Each treatment was applied in triplicate per soil type, so that n=3 at each time point.
(§3) Treatment solutions were prepared such that each microcosm received (NH4)2SO4 at a rate of 100 mg N per kg soil, Compounds 1-23 at 10 mol % of applied N, or DMPP at one of 1.5, 3.6 or 10 mol % of applied N, referred to as L-DMPP, M-DMPP or H-DMPP respectively.
(§4) The microcosms were incubated for 0, 3, 7, 14, 21 or 28 days, where day 0 samples were extracted following 1-hour incubation post-treatment. Soil microcosms were aerated and moisture levels were replenished based on weight loss every few days throughout the incubation period.
(§5) At the end of each incubation period, soil microcosms were destructively sampled by treatment with 2M KCl (100 mL). After shaking for 1 hour, soil-KCl solutions were filtered (Whatman 42) before storing the filtrates at −20° C. until the conclusion of the experiment. All KCl extracts were then analysed by Segmented Flow Analysis (San++, Skalar, Breda, The Netherlands) for the concentration of nitrogen from ammonium (NH4^+—N) and nitrogen from NO3 and NO2 (NOx^−—N) after appropriate dilutions. Results are reported as the mean of three replicates, errors reported are standard errors of the mean.
(§6) Nitrification calculations were performed as previously reported (Aulakh, M., et al., Biology and Fertility of Soils 2001, 33, 258-263; Mahmood, T., et al., Soil Research 2017, 55, 715-722) without correction for the initial baseline concentrations of NH4^+—N or NO3^− N in the untreated soil. For each treatment nitrified NH4^+—N (%) was calculated according to eqn. 1:
(§7) where [NH4^+—N]0 is the NH4^+—N concentration (in mg N kg^−1 soil) of the soil on day 0 and [NH4^+—N]t is the NH4^+—N concentration (in mg N kg^−1 soil) of the soil at a given time point t.
(§8) NOx^−—N accumulation rates (mg NOx^−—N/kg soil/day) over the 28-day incubation experiments were calculated for each treatment as in the following (eqn. 2):
(§9) [NOx^−—N]t=0 and [NOx^−—N]t=28 are the combined concentrations of nitrite (NO2) and nitrate (NO3) in the soil (in mg N kg^−1 soil) on day 0 and day 28, respectively.

[2] = system: Dahlen soil; experiment: Soil microcosm incubation (nitrification of applied ammonium), Dahlen soil; settings: for Nitrified NH4+—N (%) Day 3 / Nitrified NH4+—N (%) Day 7 / Nitrified NH4+—N (%) Day 14 / Nitrified NH4+—N (%) Day 21 / Nitrified NH4+—N (%) Day 28: 10 mol %
Protocol: as §1, §2, §3, §4, §5, §6, §7, §8, §9

[3] = system: South Johnstone soil; experiment: Soil microcosm incubation (nitrification of applied ammonium), South Johnstone soil; settings: for Nitrified NH4+—N (%) Day 3 / Nitrified NH4+—N (%) Day 7 / Nitrified NH4+—N (%) Day 14 / Nitrified NH4+—N (%) Day 21 / Nitrified NH4+—N (%) Day 28: 10 mol %
Protocol: as §1, §2, §3, §4, §5, §6, §7

[4] = ranging from no effect; cited from earlier work
[5] = Horsham soil pH 8.8, 25° C., inhibitors 10 mol % of applied N
[6] = Horsham soil pH 8.8, 25° C., 10 mol %
[7] = Horsham soil pH 8.8, 35° C., 10 mol %
[8] = Dahlen soil, 35° C., after 28 days
[9] = Table 4, Dahlen soil pH 7.3, 25° C.
[10] = Table 4, Dahlen soil pH 7.3, 35° C.
[11] = South Johnstone soil pH 5.0, 25° C., negative = NH4+—N higher than day 0 (mineralisation)
[12] = South Johnstone soil pH 5.0, 25° C.
[13] = South Johnstone soil pH 5.0, 25° C., day 28
[14] = South Johnstone soil pH 5.0, 35° C.
[15] = South Johnstone soil pH 5.0, 35° C., day 28
[16] = Table 5, Dahlen soil pH 7.3, 25° C.
[17] = Table 5, Dahlen soil pH 7.3, 35° C.

With `CCCc1cn(CCC)nn1` [Compound 16, 1,4-dipropyl-1H-1,2,3-triazole] the “Nitrified NH4+—N (%) Day 3” value [1, 5] was 8.9 ± 3.4%, the “Nitrified NH4+—N (%) Day 7” value [1, 6] was 24.9 ± 3.0% and the “Nitrified NH4+—N (%) Day 14” value [1, 6] was 44.2 ± 3.3%. The “Nitrified NH4+—N (%) Day 21” value [1, 6] was 57.5 ± 3.4%, the “Nitrified NH4+—N (%) Day 28” value [1, 6] was 70.9 ± 3.9% and the “Nitrified NH4+—N (%) Day 3” value [1, 7] was 2.5 ± 4.5%. For the same compound, the “Nitrified NH4+—N (%) Day 7” value [1, 7] was 22.3 ± 4.3%, the “Nitrified NH4+—N (%) Day 14” value [1, 7] was 42.3 ± 4.6% and the “Nitrified NH4+—N (%) Day 21” value [1, 7] was 74.9 ± 6.1%. For the same compound, the “Nitrified NH4+—N (%) Day 28” value [1, 7] was 83.7 ± 6.1%, the “retaining NH4+ vs uninhibited control treatment” value ([1]; Horsham soil, 25° C., after 28 days) was “performed statistically better” and the “nitrification rates vs uninhibited control treatment” value ([1]; Horsham soil, 35° C.) was “lower nitrification rates than the uninhibited control treatment”. For the same compound, the “retaining NH4+—N vs uninhibited control treatment and DMPP” value ([2]; Dahlen soil, 25° C., after 28 days) was “performed statistically better”, the “NOx−—N accumulation rate” value ([2]; Dahlen soil, 35° C., 28-day incubation) was 1.8 mg NOx−—N/kg soil/day and the ammonia consumption [2, 8] was 17%. For the same compound, the “retaining NH4+ vs both DMPP treatment and control treatment” value [2, 8] was “performed statistically better”, the “Nitrified NH4+—N (%) Day 3” value [2, 9] was 8.8 ± 3.3% and the “Nitrified NH4+—N (%) Day 7” value [2, 9] was 15.6 ± 5.0%. The “Nitrified NH4+—N (%) Day 14” value [2, 9] was 16.4 ± 28.7%, the “Nitrified NH4+—N (%) Day 21” value [2, 9] was 26.9 ± 4.6% and the “Nitrified NH4+—N (%) Day 28” value [2, 9] was 37.3 ± 4.4%. The “Nitrified NH4+—N (%) Day 3” value [2, 10] was 1.5 ± 1.4%, the “Nitrified NH4+—N (%) Day 7” value [2, 10] was 6.0 ± 1.5% and the “Nitrified NH4+—N (%) Day 14” value [2, 10] was 16.1 ± 4.5%. The “Nitrified NH4+—N (%) Day 21” value [2, 10] was 29.8 ± 1.2%, the “Nitrified NH4+—N (%) Day 28” value [2, 10] was 16.9 ± 2.6% and the “Nitrified NH4+—N (%) Day 3” value [3, 11] was −6.3 ± 0.8%. For the same compound, the “Nitrified NH4+—N (%) Day 7” value [3, 12] was −11.5 ± 0.8%, the “Nitrified NH4+—N (%) Day 14” value [3, 12] was −14.4 ± 0.7% and the “Nitrified NH4+—N (%) Day 21” value [3, 12] was −16.8 ± 1.2%. For the same compound, the “Nitrified NH4+—N (%) Day 28” value [3, 13] was −13.2 ± 0.7%, the “Nitrified NH4+—N (%) Day 3” value [3, 14] was −14.7 ± 1.9% and the “Nitrified NH4+—N (%) Day 7” value [3, 14] was −26.3 ± 1.7%. The “Nitrified NH4+—N (%) Day 14” value [3, 14] was −35.7 ± 2.4%, the “Nitrified NH4+—N (%) Day 21” value [3, 14] was −35.7 ± 0.6% and the “Nitrified NH4+—N (%) Day 28” value [3, 15] was −18.4 ± 2.3%. For the same compound, the “retaining NH4+—N vs DMPP” value ([3]; South Johnstone soil, 35° C.) was “performed statistically better than DMPP” and the “retaining NH4+—N and slowing NOx−—N growth vs fertilised control” value ([3]; South Johnstone soil, 35° C., day 28) was “performed statistically better than the fertilised control”.
For `Cc1c[nH]nc1C.O=P(O)(O)O` [DMPP, 3,4-dimethylpyrazole phosphate, reference compound], the “Nitrified NH4+—N (%) Day 3” value [1, 5] was −6.9 ± 2.8%, the “Nitrified NH4+—N (%) Day 7” value [1, 6] was 8.5 ± 2.8% and the “Nitrified NH4+—N (%) Day 14” value [1, 6] was 37.2 ± 2.3%. The “Nitrified NH4+—N (%) Day 21” value [1, 6] was 75.7 ± 5.4%, the “Nitrified NH4+—N (%) Day 28” value [1, 6] was 76.2 ± 2.1% and the “Nitrified NH4+—N (%) Day 3” value [1, 7] was 7.9 ± 3.0%. For the same compound, the “Nitrified NH4+—N (%) Day 7” value [1, 7] was 18.9 ± 2.8%, the “Nitrified NH4+—N (%) Day 14” value [1, 7] was 32.3 ± 4.1% and the “Nitrified NH4+—N (%) Day 21” value [1, 7] was 46.6 ± 5.9%. The “Nitrified NH4+—N (%) Day 28” value [1, 7] was 64.5 ± 12.7%, the “NOx−—N accumulation: effect of temperature (25° C. vs 35° C.)” value ([1]; Horsham soil, 28-day incubation) was “greatest increase in production rate at the higher test temperature” and the “retaining NH4+ and preventing NOx production (statistics vs control)” value ([1]; Horsham soil, 35° C.) was “performed statistically better”. For the same compound, the “NH4+—N consumption” value ([1]; Horsham soil, 35° C., after 28 days) was 65%, the “performance at higher temperature” value ([2]; Dahlen soil, 35° C. vs 25° C.) was “performed significantly poorer at the higher temperature” and the “retaining NH4+—N vs (NH4)2SO4-treated control by day 28” value ([2]; Dahlen soil, 35° C., Table 5 test) was “remain highly effective”. For the same compound, the nitrified ammonia ([2]; Dahlen soil, 35° C., day 21 (Table 5)) was 52%, the “Nitrified NH4+—N (%) Day 3” value [2, 9] was 2.1 ± 2.8% and the “Nitrified NH4+—N (%) Day 7” value [2, 9] was 11.7 ± 6.7%. For the same compound, the “Nitrified NH4+—N (%) Day 14” value [2, 9] was 17.3 ± 12.7%, the “Nitrified NH4+—N (%) Day 21” value [2, 9] was 18.2 ± 6.6% and the “Nitrified NH4+—N (%) Day 28” value [2, 9] was 18.6 ± 4.9%. For the same compound, the “Nitrified NH4+—N (%) Day 3” value [2, 10] was 2.4 ± 3.0%, the “Nitrified NH4+—N (%) Day 7” value [2, 10] was 24.8 ± 2.7% and the “Nitrified NH4+—N (%) Day 14” value [2, 10] was 25.6 ± 3.8%. The “Nitrified NH4+—N (%) Day 21” value [2, 10] was 48.3 ± 6.4%, the “Nitrified NH4+—N (%) Day 28” value [2, 10] was 60.5 ± 8.4% and the “Nitrified NH4+—N (%) Day 3” value ([2]; Table 5 (further comparative test), Dahlen soil pH 7.3, 25° C.) was 4.9 ± 3.1%. The “Nitrified NH4+—N (%) Day 7” value [2, 16] was 11.0 ± 3.2%, the “Nitrified NH4+—N (%) Day 14” value [2, 16] was 17.4 ± 4.2% and the “Nitrified NH4+—N (%) Day 21” value [2, 16] was 28.7 ± 5.2%. For the same compound, the “Nitrified NH4+—N (%) Day 28” value [2, 16] was 21.8 ± 3.3%, the “Nitrified NH4+—N (%) Day 3” value [2, 17] was 15.3 ± 2.9% and the “Nitrified NH4+—N (%) Day 7” value [2, 17] was 15.8 ± 2.5%. For the same compound, the “Nitrified NH4+—N (%) Day 14” value [2, 17] was 16.0 ± 6.0%, the “Nitrified NH4+—N (%) Day 21” value [2, 17] was 51.5 ± 5.4% and the “Nitrified NH4+—N (%) Day 28” value [2, 17] was 38.5 ± 2.9%. The “Nitrified NH4+—N (%) Day 3” value [3, 11] was −12.5 ± 8.8%, the “Nitrified NH4+—N (%) Day 7” value [3, 12] was −10.3 ± 0.7% and the “Nitrified NH4+—N (%) Day 14” value [3, 12] was −12.5 ± 0.6%. The “Nitrified NH4+—N (%) Day 21” value [3, 12] was −12.0 ± 1.6%, the “Nitrified NH4+—N (%) Day 28” value [3, 13] was −7.5 ± 0.5% and the “Nitrified NH4+—N (%) Day 3” value [3, 14] was −12.3 ± 1.2%. The “Nitrified NH4+—N (%) Day 7” value [3, 14] was −25.3 ± 0.9%, the “Nitrified NH4+—N (%) Day 14” value [3, 14] was −28.1 ± 1.3% and the “Nitrified NH4+—N (%) Day 21” value [3, 14] was −23.0 ± 2.3%. For the same compound, the “Nitrified NH4+—N (%) Day 28” value [3, 15] was −0.90 ± 2.3%, the “effectiveness among the treatments (NH4+—N retention, NOx−—N growth)” value ([3]; South Johnstone soil, 25° C., days 21 and 28) was “least effective” and the “inhibition in field studies for reducing leaching and N2O emissions” value [4] was ≤ 70%.
